“And” between values parts separate entries of the source, which are not always exact repeats. Identical values can stand only once.
Species on record: Rattus norvegicus
Experiment: Open TG-GATES - Regimen: Single
Format: toxicity, organism-based, Sprague-Dawley
Design: regimen Single, gender Male, age 6 weeks
Settings: in vivo, po, route gavage; for LIVER: tissue Liver; for A/G / ALP / ALT / AST / BUN / CRE / Ca / Cl / GLC / IP / K / LDH / Na / PL / RALB / TBIL / TC / TG / TP / gamma-GTP / DBIL: tissue Plasma; for APTT / Bas / Eos / Fbg / Hb / Ht / Lym / MCH / MCHC / MCV / Mono / Neu / PT / Plat / RBC / Ret / WBC: tissue Blood; for KIDNEY_L / KIDNEY_R / KIDNEY_TOTAL: tissue Kidney
[1] = 0 mg/kg, 24 h, dose level Control

`COc1ccc2c(c1)c(CC(=O)O)c(C)n2C(=O)c1ccc(Cl)cc1` [INDOMETHACIN] was tested, and the LIVER [1] was 10.4 g and 11.1 g, the A/G [1] was 2.1 and 1.6 and the ALP [1] was 1109.6 IU/L and 886.6 IU/L. For the same compound, the ALT [1] was 39.6 IU/L and 36.4 IU/L, the AST [1] was 68 IU/L and 72.6 IU/L and the BUN [1] was 18 mg/dL and 13.8 mg/dL. The CRE [1] was 0.5 mg/dL and 0.4 mg/dL, the Ca [1] was 10.5 mg/dL and 10.7 mg/dL and the Cl [1] was 105 meq/L and 102.8 meq/L. The GLC [1] was 185.4 mg/dL and 187.8 mg/dL, the IP [1] was 8.8 mg/dL and 7.4 mg/dL and the K [1] was 5.7 meq/L and 4.3 meq/L. The LDH [1] was 106 IU/L and 240.2 IU/L, the Na [1] was 138.8 meq/L and 140.6 meq/L and the PL [1] was 153.2 mg/dL and 145.8 mg/dL. For the same compound, the RALB [1] was 4 g/dL and 3.4 g/dL, the TBIL [1] was 0.2 mg/dL and 0.1 mg/dL and the TC [1] was 83.2 mg/dL and 72.2 mg/dL. The TG [1] was 84 mg/dL and 116 mg/dL, the TP [1] was 5.9 g/dL and 5.5 g/dL and the gamma-GTP [1] was 1.2 IU/L and 1.4 IU/L. For the same compound, the TERMINAL_BW (1 mg/kg, 3 h, dose level Low) was 199.2 g, the APTT (1 mg/kg, 3 h, dose level Low) was 17.2 s and the Bas (1 mg/kg, 3 h, dose level Low) was 0%. For the same compound, the Eos (1 mg/kg, 3 h, dose level Low) was 0.6%, the Fbg (1 mg/kg, 3 h, dose level Low) was 222.4 mg/dL and the Hb (1 mg/kg, 3 h, dose level Low) was 13.3 g/dL. For the same compound, the Ht (1 mg/kg, 3 h, dose level Low) was 40%, the Lym (1 mg/kg, 3 h, dose level Low) was 81.2% and the MCH (1 mg/kg, 3 h, dose level Low) was 21.8 pg. The MCHC (1 mg/kg, 3 h, dose level Low) was 33.1%, the MCV (1 mg/kg, 3 h, dose level Low) was 65.7 fL and the Mono (1 mg/kg, 3 h, dose level Low) was 8.6%. For the same compound, the Neu (1 mg/kg, 3 h, dose level Low) was 9.8%, the PT (1 mg/kg, 3 h, dose level Low) was 12.4 s and the Plat (1 mg/kg, 3 h, dose level Low) was 99.5 x10_4/uL. It also gave an RBC (1 mg/kg, 3 h, dose level Low) of 610 x10_4/ul, a Ret (1 mg/kg, 3 h, dose level Low) of 9.6% and a WBC (1 mg/kg, 3 h, dose level Low) of 95.5 x10_2/uL. The KIDNEY_L (1 mg/kg, 3 h, dose level Low) was 0.9 g, the KIDNEY_R (1 mg/kg, 3 h, dose level Low) was 0.9 g and the KIDNEY_TOTAL (1 mg/kg, 3 h, dose level Low) was 1.8 g. For the same compound, the LIVER (1 mg/kg, 3 h, dose level Low) was 9.5 g, the A/G (1 mg/kg, 3 h, dose level Low) was 1.7 and the ALP (1 mg/kg, 3 h, dose level Low) was 1062.4 IU/L. The ALT (1 mg/kg, 3 h, dose level Low) was 37.4 IU/L, the AST (1 mg/kg, 3 h, dose level Low) was 68.6 IU/L and the BUN (1 mg/kg, 3 h, dose level Low) was 11.8 mg/dL. For the same compound, the CRE (1 mg/kg, 3 h, dose level Low) was 0.5 mg/dL, the Ca (1 mg/kg, 3 h, dose level Low) was 10.5 mg/dL and the Cl (1 mg/kg, 3 h, dose level Low) was 105.6 meq/L. The DBIL (1 mg/kg, 3 h, dose level Low) was 0.018 mg/dL, the GLC (1 mg/kg, 3 h, dose level Low) was 187.8 mg/dL and the IP (1 mg/kg, 3 h, dose level Low) was 9 mg/dL. The K (1 mg/kg, 3 h, dose level Low) was 4.8 meq/L, the LDH (1 mg/kg, 3 h, dose level Low) was 100 IU/L and the Na (1 mg/kg, 3 h, dose level Low) was 137.4 meq/L. It also gave a PL (1 mg/kg, 3 h, dose level Low) of 130.4 mg/dL, an RALB (1 mg/kg, 3 h, dose level Low) of 3.8 g/dL and a TBIL (1 mg/kg, 3 h, dose level Low) of 0.3 mg/dL. It also gave a TC (1 mg/kg, 3 h, dose level Low) of 75.6 mg/dL, a TG (1 mg/kg, 3 h, dose level Low) of 41.8 mg/dL and a TP (1 mg/kg, 3 h, dose level Low) of 6.1 g/dL. For the same compound, the gamma-GTP (1 mg/kg, 3 h, dose level Low) was 1.6 IU/L, the TERMINAL_BW (1 mg/kg, 6 h, dose level Low) was 195.5 g and the APTT (1 mg/kg, 6 h, dose level Low) was 16.7 s. It also gave a Bas (1 mg/kg, 6 h, dose level Low) of 0%, an Eos (1 mg/kg, 6 h, dose level Low) of 0.6% and a Fbg (1 mg/kg, 6 h, dose level Low) of 210.6 mg/dL. It also gave a Hb (1 mg/kg, 6 h, dose level Low) of 13.6 g/dL, a Ht (1 mg/kg, 6 h, dose level Low) of 41.1% and a Lym (1 mg/kg, 6 h, dose level Low) of 78.8%. It also gave an MCH (1 mg/kg, 6 h, dose level Low) of 21.8 pg, an MCHC (1 mg/kg, 6 h, dose level Low) of 33.1% and an MCV (1 mg/kg, 6 h, dose level Low) of 66 fL. The Mono (1 mg/kg, 6 h, dose level Low) was 9%, the Neu (1 mg/kg, 6 h, dose level Low) was 11.6% and the PT (1 mg/kg, 6 h, dose level Low) was 12.5 s. For the same compound, the Plat (1 mg/kg, 6 h, dose level Low) was 104.4 x10_4/uL, the RBC (1 mg/kg, 6 h, dose level Low) was 623.2 x10_4/ul and the Ret (1 mg/kg, 6 h, dose level Low) was 9.4%. The WBC (1 mg/kg, 6 h, dose level Low) was 102.9 x10_2/uL, the KIDNEY_L (1 mg/kg, 6 h, dose level Low) was 1 g and the KIDNEY_R (1 mg/kg, 6 h, dose level Low) was 0.9 g. For the same compound, the KIDNEY_TOTAL (1 mg/kg, 6 h, dose level Low) was 1.9 g, the LIVER (1 mg/kg, 6 h, dose level Low) was 8.8 g and the A/G (1 mg/kg, 6 h, dose level Low) was 1.7. The ALP (1 mg/kg, 6 h, dose level Low) was 1218.4 IU/L, the ALT (1 mg/kg, 6 h, dose level Low) was 35.8 IU/L and the AST (1 mg/kg, 6 h, dose level Low) was 70.6 IU/L. It also gave a BUN (1 mg/kg, 6 h, dose level Low) of 11 mg/dL, a CRE (1 mg/kg, 6 h, dose level Low) of 0.5 mg/dL and a Ca (1 mg/kg, 6 h, dose level Low) of 10.2 mg/dL. The Cl (1 mg/kg, 6 h, dose level Low) was 105.6 meq/L, the DBIL (1 mg/kg, 6 h, dose level Low) was 0.02 mg/dL and the GLC (1 mg/kg, 6 h, dose level Low) was 191.4 mg/dL. The IP (1 mg/kg, 6 h, dose level Low) was 9.4 mg/dL, the K (1 mg/kg, 6 h, dose level Low) was 5.1 meq/L and the LDH (1 mg/kg, 6 h, dose level Low) was 83.6 IU/L. It also gave a Na (1 mg/kg, 6 h, dose level Low) of 136.8 meq/L, a PL (1 mg/kg, 6 h, dose level Low) of 126.4 mg/dL and an RALB (1 mg/kg, 6 h, dose level Low) of 3.8 g/dL. The TBIL (1 mg/kg, 6 h, dose level Low) was 0.3 mg/dL, the TC (1 mg/kg, 6 h, dose level Low) was 75.8 mg/dL and the TG (1 mg/kg, 6 h, dose level Low) was 53.2 mg/dL. It also gave a TP (1 mg/kg, 6 h, dose level Low) of 6 g/dL, a gamma-GTP (1 mg/kg, 6 h, dose level Low) of 1.4 IU/L and a TERMINAL_BW (1 mg/kg, 9 h, dose level Low) of 198.6 g. It also gave an APTT (1 mg/kg, 9 h, dose level Low) of 16.5 s, a Bas (1 mg/kg, 9 h, dose level Low) of 0% and an Eos (1 mg/kg, 9 h, dose level Low) of 0.8%. For the same compound, the Fbg (1 mg/kg, 9 h, dose level Low) was 213 mg/dL, the Hb (1 mg/kg, 9 h, dose level Low) was 13.1 g/dL and the Ht (1 mg/kg, 9 h, dose level Low) was 39.4%. For the same compound, the Lym (1 mg/kg, 9 h, dose level Low) was 83.6%, the MCH (1 mg/kg, 9 h, dose level Low) was 21.8 pg and the MCHC (1 mg/kg, 9 h, dose level Low) was 33.3%. For the same compound, the MCV (1 mg/kg, 9 h, dose level Low) was 65.5 fL, the Mono (1 mg/kg, 9 h, dose level Low) was 6.6% and the Neu (1 mg/kg, 9 h, dose level Low) was 9.2%. The PT (1 mg/kg, 9 h, dose level Low) was 12.6 s, the Plat (1 mg/kg, 9 h, dose level Low) was 102.1 x10_4/uL and the RBC (1 mg/kg, 9 h, dose level Low) was 602 x10_4/ul. For the same compound, the Ret (1 mg/kg, 9 h, dose level Low) was 10.2%, the WBC (1 mg/kg, 9 h, dose level Low) was 141 x10_2/uL and the KIDNEY_L (1 mg/kg, 9 h, dose level Low) was 0.9 g. For the same compound, the KIDNEY_R (1 mg/kg, 9 h, dose level Low) was 1 g, the KIDNEY_TOTAL (1 mg/kg, 9 h, dose level Low) was 1.9 g and the LIVER (1 mg/kg, 9 h, dose level Low) was 8 g. The A/G (1 mg/kg, 9 h, dose level Low) was 2.6, the ALP (1 mg/kg, 9 h, dose level Low) was 915 IU/L and the ALT (1 mg/kg, 9 h, dose level Low) was 35.6 IU/L. For the same compound, the AST (1 mg/kg, 9 h, dose level Low) was 68.2 IU/L, the BUN (1 mg/kg, 9 h, dose level Low) was 10.6 mg/dL and the CRE (1 mg/kg, 9 h, dose level Low) was 0.5 mg/dL. For the same compound, the Ca (1 mg/kg, 9 h, dose level Low) was 10 mg/dL, the Cl (1 mg/kg, 9 h, dose level Low) was 106.8 meq/L and the DBIL (1 mg/kg, 9 h, dose level Low) was 0.072 mg/dL. For the same compound, the GLC (1 mg/kg, 9 h, dose level Low) was 187.4 mg/dL, the IP (1 mg/kg, 9 h, dose level Low) was 10 mg/dL and the K (1 mg/kg, 9 h, dose level Low) was 5.1 meq/L. The LDH (1 mg/kg, 9 h, dose level Low) was 92.8 IU/L, the Na (1 mg/kg, 9 h, dose level Low) was 137.4 meq/L and the PL (1 mg/kg, 9 h, dose level Low) was 141.6 mg/dL. The RALB (1 mg/kg, 9 h, dose level Low) was 3.8 g/dL, the TBIL (1 mg/kg, 9 h, dose level Low) was 0.5 mg/dL and the TC (1 mg/kg, 9 h, dose level Low) was 85.8 mg/dL. For the same compound, the TG (1 mg/kg, 9 h, dose level Low) was 45.2 mg/dL.
